Assay results published in US20150209428A1, “PHARMACEUTICAL COMPOSITIONS FOR TOPICAL DELIVERY OF PHOTOSENSITIZERS AND USES THEREOF” (DERMIRA, INC., priority 2012, published 2015).

Assays:
[1] = Apparent solubility of lemuteporfin in various solvents (HPLC); format: physicochemical
Source text: The solubility of lemuteporfin in various solvent compositions is shown in the last column of Table 3. All values were obtained analytically by HPLC analysis.
Solubility results for lemuteporfin indicated maximum solubility in solvent-based formulations containing primarily benzyl alcohol. The amount of lemuteporfin that can be solubilized in benzyl alcohol following heating is approximately 2.5% w/w. The addition of other solvents reduces solubility by approximately the amount of the new solvent introduced. Diethylene glycol monoethyl ether (DGME) is about 20% as efficient at dissolving lemuteporfin as benzyl alcohol.

[2] = Solubility of lemuteporfin in the LTS formulation (stirred, sampled, filtered); format: physicochemical; settings: for Lemuteporfin content (% w/w), solubility in the formulation of Table 5: filtered
Description: The solution was stirred and samples were removed at various time points, and then filtered to determine the amount of undissolved lemuteporfin. The amount of lemuteporfin that dissolved was approximately 0.048%.
Studies were conducted to determine the effect of certain of the LTS excipients on the solubility of lemuteporfin.

efficiency of DGME at dissolving lemuteporfin relative to benzyl alcohol ([1]; DGME versus benzyl alcohol): about 20%
amount of lemuteporfin that can be solubilized in benzyl alcohol ([1]; benzyl alcohol, following heating): approximately 2.5 % w/w
Apparent Solubility, % w/w Lemuteporfin ([1]; solvent % w/w: Benzyl Alcohol 30, Ethanol (190) 70): 0.455 % w/w
Apparent Solubility, % w/w Lemuteporfin ([1]; solvent % w/w: Benzyl Alcohol 30, Oleyl Alcohol 70): 0.166 % w/w
Apparent Solubility, % w/w Lemuteporfin ([1]; solvent % w/w: Benzyl Alcohol 40, Isopropyl Myristate 60): 0.090 % w/w
Apparent Solubility, % w/w Lemuteporfin ([1]; solvent % w/w: Benzyl Alcohol 50, Ethanol (190) 50): 0.453 % w/w
Apparent Solubility, % w/w Lemuteporfin ([1]; solvent % w/w: Benzyl Alcohol 50, Oleic Acid 50): 0.409 % w/w
Apparent Solubility, % w/w Lemuteporfin ([1]; solvent % w/w: Benzyl Alcohol 50, Oleyl Alcohol 50): 0.228 % w/w
Apparent Solubility, % w/w Lemuteporfin ([1]; solvent % w/w: Benzyl Alcohol 50, Propylene Glycol 50): 0.494 % w/w
Apparent Solubility, % w/w Lemuteporfin ([1]; solvent % w/w: Benzyl Alcohol 90, Isopropyl Myristate 10): 2.30 % w/w
Apparent Solubility, % w/w Lemuteporfin ([1]; solvent % w/w: Benzyl Alcohol 90, Oleic Acid 10): 2.33 % w/w
Apparent Solubility, % w/w Lemuteporfin ([1]; solvent % w/w: Benzyl Alcohol 90, Oleyl Alcohol 5, Oleic Acid 5): 2.22 % w/w
Apparent Solubility, % w/w Lemuteporfin ([1]; solvent % w/w: Benzyl Alcohol 90, Oleyl Alcohol 10): 2.24 % w/w
Apparent Solubility, % w/w Lemuteporfin ([1]; solvent % w/w: Benzyl Alcohol 100): 2.55 % w/w
Apparent Solubility, % w/w Lemuteporfin ([1]; solvent % w/w: DGME 45, Benzyl Alcohol 45, Oleyl Alcohol 5, Oleic Acid 5): 1.373 % w/w
Apparent Solubility, % w/w Lemuteporfin ([1]; solvent % w/w: DGME 50, Benzyl Alcohol 15, Oleic Acid 35): 0.230 % w/w
Apparent Solubility, % w/w Lemuteporfin ([1]; solvent % w/w: DGME 50, Benzyl Alcohol 15, Oleyl Alcohol 35): 0.200 % w/w
Apparent Solubility, % w/w Lemuteporfin ([1]; solvent % w/w: DGME 50, Benzyl Alcohol 50): 1.57 % w/w
Apparent Solubility, % w/w Lemuteporfin ([1]; solvent % w/w: DGME 52, Benzyl Alcohol 16, Oleyl Alcohol 16, Oleic Acid 16): 0.210 % w/w
Apparent Solubility, % w/w Lemuteporfin ([1]; solvent % w/w: DGME 65, Oleyl Alcohol 17.5, Oleic Acid 17.5): 0.271 % w/w
Apparent Solubility, % w/w Lemuteporfin ([1]; solvent % w/w: DGME 65, Oleyl Alcohol 35): 0.430 % w/w
Apparent Solubility, % w/w Lemuteporfin ([1]; solvent % w/w: DGME 90, Isopropyl Myristate 10): 0.430 % w/w
Apparent Solubility, % w/w Lemuteporfin ([1]; solvent % w/w: DGME 90, Oleyl Alcohol 5, Oleic Acid 5): 0.420 % w/w
Apparent Solubility, % w/w Lemuteporfin ([1]; solvent % w/w: DGME 90, Oleyl Alcohol 10): 0.420 % w/w
solubility of lemuteporfin in LTS solution system ([2]; isopropyl alcohol removed (data not shown)): 0.07 % w/w
amount of lemuteporfin that dissolved in the Table 5 components ([2]; room temperature): approximately 0.048%
Lemuteporfin content (% w/w), solubility in the formulation of Table 5 ([2]; room temperature, time point 0.17 hours): 0.0241 % w/w
Lemuteporfin content (% w/w), solubility in the formulation of Table 5 ([2]; room temperature, time point 2.47 hours): 0.0482 % w/w
Lemuteporfin content (% w/w), solubility in the formulation of Table 5 ([2]; room temperature, time point 4.37 hours): 0.0453 % w/w
Lemuteporfin content (% w/w), solubility in the formulation of Table 5 ([2]; room temperature, time point 6.37 hours): 0.0463 % w/w
Lemuteporfin content (% w/w), solubility in the formulation of Table 5 ([2]; room temperature, time point 23.5 hours): 0.0370 % w/w
solubility of lemuteporfin in LTS solution system ([2]; with isopropyl alcohol (data not shown)): approximately 0.03 % w/w
solubility of lemuteporfin in LTS solution system ([2]; with polysorbate 80 (data not shown)): 0.037 % w/w
solubility of lemuteporfin in LTS solution system ([2]; without polysorbate 80 (data not shown)): 0.027 % w/w
Substance: lemuteporfin
